Measured values as given in patent US20130203097A1 (priority 2010, published 2013).
*: point of attachment. pNA = O=[N+]([O-])c1ccc(N*)cc1; MeOSuc = COC(=O)CCC(=O)*

Key:
[1] = tested on: CC(=O)N[C@@H](CO)C(=O)N[C@@H](CCCCN)C(=O)NCC(=O)N[C@@H](Cc1ccc2ccc3cccc4ccc1c2c34)C(=O)N[C@@H](Cc1ccc(O)c([N+](=O)[O-])c1)C(=O)NCC(=O)NCC(=O)N[C@@H](CCCCN)C(N)=O; assay: purified protein, by the assay type; conditions: pH 7.0; 37.0 °C
[2] = tested on: strains of Legionella pneumophila; conditions: out of 283 strains of Legionella pneumophila tested; cited from earlier work
Pseudomonas aeruginosa = conditions: cited from earlier work
[3] = tested on: other species of Legionella; conditions: cited from earlier work

| Substance | Km [1] | kcat [1] | strains that degraded the substrate [2] | Pseudomonas aeruginosa that responded positively (Pseudomonas aeruginosa) | species that responded positively [3] |
| --- | --- | --- | --- | --- | --- |
| Msp (Legionella pneumophila) | 6.8 ± 0.6 µM | 23.9 ± 0.7 s⁻¹ |  |  |  |
| MeOSuc-Arg-Pro-Tyr-pNA [Compound S-2586] |  |  | 282 | 22 | 2 |
